In patent publication US20240208961A1, “EIF4E INHIBITORS AND USES THEREOF” (PIC Therapeutics, Inc., priority 2022, published 2024):
pIC50: −log10 of the molar value.

Legend:
ZR-75-1 [1] = assay: Cell viability assay, adherent cell line, 5 day Alamar Blue (Example 8): ZR-75-1; format: cell-based; settings: ZR-75-1, Breast Cancer Cell Viability
Method: (§1) Cell viability assays were performed on certain compounds of the disclosure, according to the following procedure.
(§2) Cell line specific media conditions used:
(§3) The procedure for adherent cell line compound screening was as follows:
(§4) • Cells were seeded in 96-well cell culture treated tissue culture plates: ZR-75-1, NIHOVCAR3, T47D, and LOVO cells 4000 cells/well; and HPAFII 3000 cell/well
(§5) Day 3: Compound Dilution and Dosing
(§6) • 5-fold serial dilution (8 point) of each compound in DMSO 0-25 mM in compound storage plates was prepared (stored at −80° C. if not to be used immediately). • Cells were rinsed with 1% FBS Media (appropriate to cell line as described above) and replaced with 87.5 μL media prior to dosing. HPAFII was screened in normal 10% FBS Media. • DMSO compound dilution series was diluted in 1% FBS media (appropriate to cell line as described above)—2 μL in 248 μL to give an 8× final concentration. • Cells were dosed 12.5 μL/well in triplicate to give final dose curved on cells 0-25 μM. • Media blank 100 μL/well×8 was set up. • All plates were incubated at 37° C.
(§7) Day 8: 5 Day Viability Assay
(§8) • Alamar Blue viability reagent was added (10 μL per well) and incubated for 3 hours at 37° C. prior to fluorescence detection (Ex560 nm/Em590 nm) on a Varioskan Lux multimode plate reader.
(§9) Results from cell viability assays are summarized in Table 23, wherein A represents IC50≤1 μM; B represents 1 μM<IC50≤8 μM; and C represents IC50>8 μM. Blank cells indicate that the compound was not tested in a particular assay.

ZR-75-1 [2] = assay: ZR-75-1 compound screening cell viability, Alamar Blue (Example 6); format: cell-based; settings: ZR-75-1 cells, Media 1% FBS, read-out: ZR-75-1 Cell Viability, 4 Days: IC50
MM.1R = assay: Cell viability assay, suspension cell line, 5 day Alamar Blue (Example 8): MM.1R; format: cell-based; settings: 120 h, Multiple Myeloma (Steroid Resistant) Cancer Cell
Method: as §1, §2
(§10) The procedure for suspension cell line compound screening was as follows:
(§11) Day 1: Cell Seeding and Compound Dosing
as §6, with “• Cells were seeded 2×10^5 in 96-well cell culture treated tissue culture plates: 87.5 μL/well; MM.1 S, MM,1R, NCIH510A. • 5-fold” for “• 5-fold”, “to dosing. • DMSO” for “to dosing. HPAFII was screened in normal 10% FBS Media. • DMSO”
(§12) Day 6: 5 Day Viability Assay
as §8, §9

HPAFII = assay: Cell viability assay, adherent cell line, 5 day Alamar Blue (Example 8): HPAFII; format: cell-based; settings: Homo sapiens, HPAF-II, 120 h, Pancreatic Cancer Cell
Method: as §1, §2, §3, §4, §5, §6, §7, §8, §9

Human eIF4E (aa 28-217) = biological target: T1, Human eIF4E (aa 28-217) (Homo sapiens, UniProt P06730); assay: 4G-eIF4E protein-based assay (TR-FRET, biotin labeled 4G2 peptide); format: binding
T1 construct: Human eIF4E (aa 28-217) with a C-terminal His-tag; made in house
T1 sequence (P06730 28-217): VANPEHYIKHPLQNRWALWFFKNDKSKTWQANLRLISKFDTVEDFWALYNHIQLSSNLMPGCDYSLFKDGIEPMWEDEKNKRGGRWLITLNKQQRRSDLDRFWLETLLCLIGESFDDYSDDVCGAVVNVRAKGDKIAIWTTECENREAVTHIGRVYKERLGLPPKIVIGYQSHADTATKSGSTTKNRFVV
Method: Human eIF4E ([…]) with a C-terminal His-tag was expressed in E. coli in inclusion bodies. The protein was solubilized with 8 M urea and purified under denaturing conditions using nickel-charged HisTrap HP columns (GE Healthcare). The purified protein was then refolded by diluting in 20 mM Hepes pH 7.0, 0.5 M NaCl, 1 mM DTT, […], 0.5 M arginine plus 6 M urea, and then dialyzing overnight into the same buffer without the urea. The protein was further dialyzed into 20 mM Hepes, pH 6.5, 50 mM NaCl, 1 mM EDTA, 1 mM DTT, and concentrated using Hitrap SP sepharose FF columns (GE Healthcare). The concentrated protein was dialyzed into 20 mM Hepes, pH 7.0, 0.5M NaCl, 5 mM DTT and […], and stored at -80° C. until use. Test compounds (3.43 mM stock in DMSO) were diluted 2-fold in series in DMSO (10 concentration points). Compound solutions (1.2 μL/well) were added into black 384-well polypropylene microplates (Matrix, Thermal Scientific). […] The samples were incubated at room temperature (20-23° C.) for 4 hours. Biotin labeled 4G2 peptide ([…])-NH2, 1.75 μM stock in DMSO) was diluted to 0.13 μM in Assay Buffer (without DTT) and 5 μL/well was added. The samples were incubated at room temperature for 20 min. Five microliters per well of 15 nM Eu-streptavidin (Eu-SA, Perkin Elmer) and 96 nM Allophycocyanin (APC)-anti His antibody (Columbia Biosciences) in Assay Buffer (without DTT) were then added and the samples were incubated at room temperature for 20 min. Assay signals were monitored by reading excitation at 340 nm and emission fluorescence at 615 nm and 665 nm on an Envision reader (Perkin Elmer). Normalized TR-FRET (time-resolved fluorescence resonance energy transfer) assay signal (Rn) was calculated by the formula: […] C=(Ac-Ba)/(Dc-Bd) • Where Ac is the fluorescence intensity of 1.5 nM Eu-SA in the assay buffer at 665 nm. IC50 values were calculated using xLFit program (IDBS).

T47D = assay: Cell viability assay, adherent cell line, 5 day Alamar Blue (Example 8): T47D; format: cell-based; settings: Homo sapiens, 120 h, Breast Cancer Cell Viability
Method: as §1, §2, §3, §4, §5, §6, §7, §8, §9

NCIH510A = assay: Cell viability assay, suspension cell line, 5 day Alamar Blue (Example 8): NCIH510A; format: cell-based; settings: Homo sapiens, NCI-H510A, 120 h, Small Cell Lung Cancer Cell Line
Method: as §1, §2, §10, §11
as §6, with “• Cells were seeded 2×10^5 in 96-well cell culture treated tissue culture plates: 87.5 μL/well; MM.1 S, MM,1R, NCIH510A. • 5-fold” for “• 5-fold”, “to dosing. • DMSO” for “to dosing. HPAFII was screened in normal 10% FBS Media. • DMSO”
as §12, §8, §9

NIHOVCAR3 = assay: Cell viability assay, adherent cell line, 5 day Alamar Blue (Example 8): NIHOVCAR3; format: cell-based; settings: Homo sapiens, OVCAR-3, 120 h, OVCAR3, Ovarian Cancer Cell
Method: as §1, §2, §3, §4, §5, §6, §7, §8, §9

MM.1S = assay: Cell viability assay, suspension cell line, 5 day Alamar Blue (Example 8): MM.1S; format: cell-based; settings: Homo sapiens, MM1.S, 120 h, Multiple Myeloma (Steroid Sensitive) Cancer Cell
Method: as §1, §2, §10, §11
as §6, with “• Cells were seeded 2×10^5 in 96-well cell culture treated tissue culture plates: 87.5 μL/well; MM.1 S, MM,1R, NCIH510A. • 5-fold” for “• 5-fold”, “to dosing. • DMSO” for “to dosing. HPAFII was screened in normal 10% FBS Media. • DMSO”
as §12, §8, §9

LoVo = assay: Cell viability assay, adherent cell line, 5 day Alamar Blue (Example 8): LoVo; format: cell-based; settings: Homo sapiens, 120 h, Colorectal Cancer Cell Viability
Method: as §1, §2, §3, §4, §5, §6, §7, §8, §9

Row | Compound | pIC50 (ZR-75-1 [1]; Homo sapiens, 120 h) | pIC50 (ZR-75-1 [2]; Homo sapiens, 96 h) | other results
1 | 2-((4-(cyclopent-1-en-1-yl)-5-isobutylthiazol-2-yl)amino)-5-(thiophen-2-yl)nicotinic acid [Compound I-7] | – | – | pIC50 (ZR-75-1 [1]): < 5.10; pIC50 (ZR-75-1 [2]): > 6.00
2 | CC(C)Cc1sc(Nc2ncc(-c3cccs3)cc2C(=O)O)nc1C1=CCC(F)(F)CC1 [Compound I-4] | ≥ 6.00 | > 6.00 | pIC50 (MM.1R): 5.10 to 6.00; pIC50 (HPAFII): ≥ 6.00; pIC50 (Human eIF4E (aa 28-217)): 6.00 to 6.30; pIC50 (T47D): ≥ 6.00; pIC50 (NCIH510A): ≥ 6.00; pIC50 (NIHOVCAR3): ≥ 6.00; pIC50 (MM.1S): ≥ 6.00; pIC50 (LoVo): ≥ 6.00
3 | COC(=O)c1cc(-c2cccs2)cnc1Nc1nc(C2=CCC(F)(F)CC2)c(CC(C)C)s1 [Compound I-5, methyl 2-((4-(4,4-difluorocyclohex-1-en-1-yl)-5-isobutylthiazol-2-yl)amino)-5-(thiophen-2-yl)nicotinate] | < 5.10 | < 5.10 | –
4 | CC(C)Cc1sc(Nc2ncc(-c3cccs3)cc2C(=O)O)nc1C1CCCC1 [Compound I-6, 2-((4-cyclopentyl-5-isobutylthiazol-2-yl)amino)-5-(thiophen-2-yl)nicotinic acid] | ≥ 6.00 | > 6.00 | –
5 | CC(C)c1sc(Nc2ncc(-c3cccs3)cc2C(=O)O)nc1C1=CCCC1 [Compound I-9] | ≥ 6.00 | > 6.00 | –
6 | CC(C)Cc1sc(Nc2ncc(-c3cccs3)cc2C(=O)O)nc1C1CC1 [Compound I-10] | 5.10 to 6.00 | 5.10 to 6.00 | –
7 | O=C(O)c1cc(-c2cccs2)cnc1Nc1nc(C(F)(F)F)cs1 [Compound I-12] | 5.10 to 6.00 | 5.10 to 6.00 | –
8 | C=C(C)c1nc(Nc2ncc(-c3cccs3)cc2C(=O)O)sc1CC(C)C [Compound I-13] | 5.10 to 6.00 | 5.10 to 6.00 | pIC50 (MM.1R): 5.10 to 6.00; pIC50 (HPAFII): 5.10 to 6.00; pIC50 (Human eIF4E (aa 28-217)): 6.00 to 6.30; pIC50 (T47D): 5.10 to 6.00; pIC50 (NCIH510A): 5.10 to 6.00; pIC50 (NIHOVCAR3): 5.10 to 6.00; pIC50 (MM.1S): 5.10 to 6.00; pIC50 (LoVo): 5.10 to 6.00
9 | Cc1nc(Nc2ncc(-c3cccs3)cc2C(=O)O)sc1C [Compound I-14] | 5.10 to 6.00 | 5.10 to 6.00 | –
10 | O=C(O)c1cc(-c2cccs2)cnc1Nc1nccs1 [Compound I-15] | < 5.10 | < 5.10 | –
